One series has as its target T1, CHIKV 6K (GST-6K) (Chikungunya virus strain Senegal 37997, UniProt Q5XXP3).
T1 construct: mature 6K cut from structural polyprotein C-E3-E2-6K-E1; N-terminal GST tag kept (pGEX-6P2), E. coli Rosetta pLysS
Briefly: planar lipid bilayer electrophysiology; also liposome dye release and DLS fusion assay. In kind it is biochemical. The note with it: 1 uM amantadine; 2.6 ng/ul GST-6K in DPhPC/cholesterol bilayer, 500 mM KCl, 5 mM MgCl2, 10 mM HEPES pH 7.4, 24-25 C, -70 and +70 mV; direct binding not measured.

The series “SEC” deals with the molecule itself. Briefly: SEC. (In gel filtration, larger molecules generally elute earlier.)

Regarding `NC12CC3CC(CC(C3)C1)C2` [amantadine], on CHIKV 6K (GST-6K), the “planar lipid bilayer electrophysiology; also liposome dye release and DLS fusion” value is “This clearly indicates that amantadine abolishes the ion channel activity of CHIKV 6K”.

B1: GST-6K (fusion of Chikungunya virus 6K with Glutathione S Transferase) (natural protein)
chain: ATYYEAAAYLWNEQQPLFWLQALIPLAALIVLCNCLKLLPCCCKTLAFLAVMSIGAHTVSA
notes: Monomer MW printed as 33.5 kDa; The GST tag was not removed; also called CHIKV 6K; recombinant GST-6K; not shown: GST, N-terminal, kept
In general, stoichiometry N refers to the number of molecules, sites or subunits per partner or assembly. Consider B1, for which, in the series “SEC”, the “stoichiometry N” value amounted to 6.

Values taken from article PMC6655611, “The effect of amantadine on an ion channel protein from Chikungunya virus” (PLoS Neglected Tropical Diseases, 2019).
